For one data set, the system named is Liver microsomes. Kind of data set: Metabolic stability in human liver microsomes assessed as clearance measured per mg of protein. The data set is classed as ADME, Microsome.
Data set [1] can be described thus: physchem. Particulars: buffer, pH 7.4.
The nature of data set [2]: physchem.
Description: Dissociation constant, pKa of the compound
Data set [3] relates to Human immunodeficiency virus 1. Kind of data set: microbe, parasite or virus in culture. Particulars: Human immunodeficiency virus 1, Bal, PM1.
The target of data set [4] is Voltage-gated inwardly rectifying potassium channel KCNH2 (Homo sapiens, UniProt Q12809).
Description: Displacement of [3H]dofetilide from human ERG expressed in HEK293 cells
Data set [5] concerns Human immunodeficiency virus 1. Particulars: Bal, PM1.
For another data set, the target named is hERG (KCNH2) (Homo sapiens, UniProt Q12809). Kind of data set: in vitro. Particulars: HEK293 cells that express human ERG, probe [3H]dofetilide.

The source made the active and inactive calls. No cut-off for these calls is given here. Some results are limits rather than exact numbers.

Chain of Voltage-gated inwardly rectifying potassium channel KCNH2 (Q12809 whole entry): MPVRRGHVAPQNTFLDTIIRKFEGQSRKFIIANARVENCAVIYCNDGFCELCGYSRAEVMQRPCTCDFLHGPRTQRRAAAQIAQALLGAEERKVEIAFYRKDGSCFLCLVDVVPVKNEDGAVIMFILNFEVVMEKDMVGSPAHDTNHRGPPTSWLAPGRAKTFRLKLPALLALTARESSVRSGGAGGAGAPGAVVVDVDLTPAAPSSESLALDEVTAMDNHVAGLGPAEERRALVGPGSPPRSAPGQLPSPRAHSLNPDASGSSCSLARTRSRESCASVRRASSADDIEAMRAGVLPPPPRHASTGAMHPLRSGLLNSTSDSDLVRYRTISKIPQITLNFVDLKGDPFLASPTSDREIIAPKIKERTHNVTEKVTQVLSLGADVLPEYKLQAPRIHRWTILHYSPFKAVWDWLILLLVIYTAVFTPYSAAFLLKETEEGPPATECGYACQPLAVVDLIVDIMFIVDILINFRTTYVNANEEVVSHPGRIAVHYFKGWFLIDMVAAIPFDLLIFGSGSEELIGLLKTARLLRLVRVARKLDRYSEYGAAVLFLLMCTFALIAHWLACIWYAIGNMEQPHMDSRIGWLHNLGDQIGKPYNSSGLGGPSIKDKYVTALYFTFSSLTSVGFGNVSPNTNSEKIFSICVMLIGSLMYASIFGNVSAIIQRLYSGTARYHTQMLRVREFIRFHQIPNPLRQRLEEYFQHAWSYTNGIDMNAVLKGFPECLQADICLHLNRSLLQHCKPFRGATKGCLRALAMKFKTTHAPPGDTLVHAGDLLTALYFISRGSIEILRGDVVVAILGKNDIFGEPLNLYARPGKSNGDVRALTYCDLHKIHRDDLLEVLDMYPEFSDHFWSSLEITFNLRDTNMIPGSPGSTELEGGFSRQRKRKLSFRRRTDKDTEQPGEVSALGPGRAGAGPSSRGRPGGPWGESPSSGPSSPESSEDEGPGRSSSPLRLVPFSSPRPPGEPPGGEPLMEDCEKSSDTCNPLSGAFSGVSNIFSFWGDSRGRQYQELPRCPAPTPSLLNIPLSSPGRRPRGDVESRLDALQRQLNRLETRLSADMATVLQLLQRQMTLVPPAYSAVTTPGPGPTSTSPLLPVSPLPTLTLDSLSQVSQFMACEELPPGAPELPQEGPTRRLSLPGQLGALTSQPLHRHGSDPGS
Chain of hERG (KCNH2) (Q12809 whole entry): as above
Description for hERG (KCNH2): Displacement of [3H]dofetilide from human ERG expressed in HEK293 cells at 300 nM

`Cc1nnc(C(C)C)n1[C@H]1C[C@H]2CC[C@@H](C1)N2CC[C@H](NC(=O)C1CCC(F)(F)CC1)c1ccccc1` [MARAVIROC]: the Stability with Liver microsomes is 22 µL/min. Also, in the data set “physchem [1]”, the logD was 2. Further, the pKa in “physchem [2]” was found to be 7.7. This compound showed an IC90 in data set [3] of 0.7 nM.

In the case of `CC(C)c1noc(C2CCN(C(C)C[C@H](NC(=O)C3CCC3)c3ccccc3)CC2)n1` (some centres undefined), in the data set with Liver microsomes, the Stability worked out at 204 µL/min. For the same compound, in the data set “physchem [1]”, the logD came out at 3.2.

In data set [3], `CCN(C(=O)OCc1ccccc1)C1CCN(C(C)C[C@H](NC(=O)C2CCC2)c2ccccc2)CC1` (some centres undefined) came in with an IC90 of 0.322 nM.

Take `CC(C[C@H](NC(=O)C1CCC1)c1ccccc1)N1CCC(c2nnc(CN(C)C)o2)CC1` (some centres undefined): the Stability in the data set with Liver microsomes is less than 7 µL/min. Further, the logD in the data set “physchem [1]” is 1.1.

With `Cc1noc(C2CCN(C(C)C[C@H](NC(=O)C3CCC3)c3ccccc3)CC2)n1` (some centres undefined), the Stability with Liver microsomes came to 56 µL/min. This compound also had a logD in “physchem [1]” of 2.1.

For `Cc1nnc(C2CCN(C(C)C[C@H](NC(=O)C3CCC3)c3ccccc3)CC2)o1` (some centres undefined), the Stability in the data set on Liver microsomes is less than 7 µL/min. Moreover, the logD in “physchem [1]” stood at 1.3.

`Cc1nnc(C)n1C1CCN(C(C)C[C@H](NC(=O)C2CCC2)c2ccccc2)CC1` (some centres undefined): the Stability with Liver microsomes is less than 7 µL/min. The logD in the data set “physchem [1]” turned out to be 1.2.

For `CC(C[C@H](NC(=O)C1CCC1)c1ccccc1)N1CCC(c2[nH]ncc2-c2ccncc2)CC1` (some centres undefined), the Stability with Liver microsomes was determined as 38 µL/min. The same compound returned a logD in “physchem [1]” of 2.4. This compound also had an IC50 in data set [4] of 117 nM.

Regarding `CCN(C(=O)NCc1ccc(Cl)c(Cl)c1)C1CCN(C(C)C[C@H](NC(=O)C2CCC2)c2ccccc2)CC1` (some centres undefined), the IC90 in data set [3] stood at 0.236 nM.

For `CCN(C(=O)c1ccc(F)cc1)C1CCN(C(C)C[C@H](NC(=O)C2CCC2)c2ccccc2)CC1` (some centres undefined), in data set [3], the 90% effect level (IC90) was put at 1630 nM.

`CCN(C(=O)Cc1ccc(OC)cc1)[C@H]1C[C@H]2CC[C@@H](C1)N2CC[C@H](NC(=O)C1CCC1)c1ccccc1`: the Stability in the data set with Liver microsomes was 183 µL/min. The same compound showed a logD in “physchem [1]” of 2.9. In “physchem [2]”, the pKa was determined as 8.7.

With `CC(C[C@H](NC(=O)C1CCC1)c1ccccc1)N1CCC(n2cc(-c3ccccc3)[nH]c2=O)CC1` (some centres undefined), the Stability in the data set on Liver microsomes turned out to be 35 µL/min. This compound also returned a logD in “physchem [1]” of 3.5. This compound also had a half-inhibitory concentration (IC50) in data set [4] of 4.7 nM.

For `Cc1nnc(C(C)C)n1C1CCN(C(C)C[C@H](NC(=O)C2CCC2)c2ccccc2)CC1` (some centres undefined), the Stability in the data set with Liver microsomes was less than 7 µL/min. Also, the logD in the data set “physchem [1]” was determined as 1.9.

For the compound `Cc1nnc(C(C)C)n1C1CCN(CC[C@H](NC(=O)C2CCC(F)(F)CC2)c2ccccc2)CC1`, in the data set with Liver microsomes, the Stability is less than 8 µL/min. The compound also came in with a logD in “physchem [1]” of 1.7. In data set [5], the result was inactive. This compound gave a pKa in the data set “physchem [2]” of 7.2. In addition, testing at 0.3 µM against hERG (KCNH2) gave an inhibition of 0%.

For `CCN(C(=O)Oc1ccc(F)cc1)C1CCN(C(C)C[C@H](NC(=O)C2CCC2)c2ccccc2)CC1` (some centres undefined), in data set [3], the IC90 was found to be 61.4 nM.

Source of the values: ChEMBL document CHEMBL1152728, “1-Amido-1-phenyl-3-piperidinylbutanes - CCR5 antagonists for the treatment of HIV. Part 1” (Bioorg Med Chem Lett, 2009).
